From patent US20030059771A1, “Compositions and methods related to the Rig tumor suppressor gene and protein” (THE UNITED STATES OF AMERICA, Department of Health and …, priority 2001, published 2003)

Assays:
prenylation of GST-Rig = experiment: In vitro prenylation assay with farnesyl transferase inhibitor (mevalonate prenylation in rabbit reticulocyte lysate); type: biochemical, human
Source text: In this Example, experiments performed to determine the in vitro prenylation characteristics of Rig, Ras and Rap are described. Radiolabelled farnesyl pyrophosphate, radiolabelled geranylgeranyl pyrophosphate or radiolabelled mevalonate were alternatively used as substrates in these assays, to determine the prenylation specificity of each GTPase protein. In addition, the ability of a farnesyl transferase inhibitor (FTI; namely, FTI-277, Calbiochem, Catalog No. 344555) to inhibit the prenylation of Rig, Ras and Rap was examined. Purified GST-Rig, GST-H-Ras (G12V) and GST-Rap fusion proteins were used in the in vitro prenylation experiments. The H-Ras(G12V) protein was included in the prenylation assays to serve as a positive control (Clark et al., Proc. Natl. Acad. Sci. USA 90:4887-4891 [1993]). […]
(§1) Each in vitro prenylation reaction contained approximately 1-2 μg alternatively of GST, GST-Rig, GST-H-Ras(G12V) or GST-Rap. […] The gel was soaked in fixing buffer (water with 10% methanol and 10% acetic acid), soaked in autofluor (National Diagnostics, Catalog No. LS315) and analyzed by autoradiography.
(§2) In a second experiment, the sensitivity of mevalonate prenylation of GST-Rig, GST-Ras and GST-Rap, to increasing amounts of farnesyl transferase inhibitor (FTI-277; Calbiochem) was assessed. […] The gel was fixed, soaked in autofluor and analyzed by autoradiography.

prenylation of GST-Rap = experiment: as above; type: biochemical; details: 1-100 nM FTI concentration range
Source text: (§3) In this Example, experiments performed to determine the in vitro prenylation characteristics of Rig, Ras and Rap are described. Radiolabelled farnesyl pyrophosphate, radiolabelled geranylgeranyl pyrophosphate or radiolabelled mevalonate were alternatively used as substrates in these assays, to determine the prenylation specificity of each GTPase protein. In addition, the ability of a farnesyl transferase inhibitor (FTI; namely, FTI-277, Calbiochem, Catalog No. 344555) to inhibit the prenylation of Rig, Ras and Rap was examined. Purified GST-Rig, GST-H-Ras (G12V) and GST-Rap fusion proteins were used in the in vitro prenylation experiments. The H-Ras(G12V) protein was included in the prenylation assays to serve as a positive control (Clark et al., Proc. Natl. Acad. Sci. USA 90:4887-4891 [1993]).
(§4) The GST-Rig fusion construct was made by cloning a restriction fragment containing the Rig ORF in frame into the BamHI/EcoRI sites of pGEX-2T (Pharmacia). The vector encoding GST-H-Ras(G12V) was made by subcloning an H-Ras (G12V) BamHI/EcoRI PCR product into the BamHI/EcoRI sites of the pGEX-2T vector. The product was confirmed by sequencing. The GST-Rap fusion construct was produced as described by Clark et al. (Clark et al., J. Biol. Chem., 272:10608-10615 [1997]).
(§5) The resulting plasmids were transformed into competent XL1-Blue Escherichia coli (Stratagene), and the GST-fusion proteins produced by the bacteria were isolated by standard techniques, according to the manufacturer's protocol (Pharmacia), with minor modification (inclusion of 100 μM GTP and the omission of EDTA from the protein collection/purification buffers). Briefly, bacteria were grown to an OD600 of 0.1 in LB broth. At that time, […] isopropyl-β-thiogalactopyranoside (IPTG) was added to the culture. Four hours following IPTG induction, the bacteria were pelleted at 3,000 RPM for 20 minutes, and resuspended in 5 mL lysis buffer (phosphate buffered saline [PBS] containing 100 μM GTP, 0.1% Triton X−100, leupeptin and aprotinin). The lysate was sonicated, then clarified by centrifugation at 10,000 RPM for 30 minutes. The resulting lysate was used as starting material for glutathione-conjugated agarose bead purification (Sigma) using standard techniques. […]
as §1, §2

[1] = tested on: prenylation of GST-Ras(G12V); experiment: as above; type: biochemical
Source text: as §3, §4, §5, §1, §2

Raf-1 = target: T1, Raf-1 (Homo sapiens, UniProt P04049); experiment: In vivo Rig/Raf-1 co-immunoprecipitation in HEK-293T cells; type: binding; details: HEK-293T cells co-transfected with HA-Raf-1
T1 construct: HA-RAF-1 fusion protein expression vector was produced by generating a full-length BamHI-compatible PCR fragment from a Raf-1 template; expressed in transfected cells; host or cells: HEK-293T
Source text: In this Example, experiments to assess the ability of Rig and Raf-1 to interact in vivo are described. These experiments (results shown in FIG. 9) used a standard in vivo co-transfection/co-immunoprecipitation protocol, where cultured mammalian cells were cotransfected with FLAG-tagged and/or hemagglutinin (HA)-tagged mammalian expression vector constructs, followed by immunoprecipitation with an anti-Raf-1 antibody and Western immunoblotting using either anti-FLAG or anti-HA primary detection antibodies. The assay was conducted using HEK-293T cells, a transformed human embryonal kidney cell line.
Briefly, HA-RAF-1 fusion protein expression vector was produced by generating a full-length BamHI-compatible PCR fragment from a Raf-1 template (Fabian et al., Proc. Natl. Acad.Sci. USA 91:5982-5986 [1994]), then cloned into the BamHI site of pCGN, which also encodes the HA epitope (Fiordalisi et al, Methods Enzymol., 332:3-36 [2001]). The construct was confirmed by sequencing.
A pCDNA3.1 (FLAG) expression vector was produced by inserting the FLAG epitope in-frame upstream of the BamHI restriction site of the multiple cloning region of pCDNA3.1 (Invitrogen). […]
Following transfection, the cells were cultured in DMEM containing 1% FBS for 48 hours. […] Membranes were then incubated in enhanced chemiluminescent substrate (ECL; Amersham) and the signal was detected on X-ray film.

[2] = FTI 1-100 nM, [3H]-mevalonate, one hour at 30 °C

Molecule | farnesylation of GST-Rig at 100 nM FTI (prenylation of GST-Rig; 100 nM FTI concentration) | sensitivity of mevalonate prenylation (radiolabelling) of GST-Rig to FTI (prenylation of GST-Rig; [2]) | sensitivity of GST-Rap farnesylation by mevalonate to FTI (prenylation of GST-Rap) | farnesylation of GST-Ras at 100 nM FTI ([1]; 100 nM FTI concentration) | sensitivity of mevalonate prenylation (radiolabelling) of GST-Ras to FTI [1, 2] | sensitivity of GST-Ras prenylation relative to GST-Rig ([1]; comparison of the two proteins, FTI 1-100 nM) | co-precipitation with Raf-1 (anti-Raf-1 immunoprecipitation) (Raf-1)
COC(=O)[C@H](CCSC)NC(=O)c1ccc(NC[C@@H](N)CS)cc1-c1ccccc1 [FTI-277] | completely abolished | sensitive | did not show sensitivity | completely abolished | sensitive | greater sensitivity | 
FLAG-Rig: FLAG-tagged recombinant Rig protein expressed from pCDNA-FLAG (protein, left off: small tags and cut ends) MPEQSNDYRVVVFGAGGVGKSSLVLRFVKGTFRDTYIPTIEDTYRQVISCDKSVCTLQITDTTGSHQFPAMQRLSISKGHAFILVFSVTSKQSLEELGPIYKLIVQIKGSVEDIPVMLVGNKCDETQREVDTREAQAVAQEWKCAFMETSAKMNYNVKELFQELLTLETRRNMSLNIDGKRSGKQKRTDRVKGKCTLM |  |  |  |  |  |  | coprecipitated
